{"source": "patent US11084800B2", "about": "(Achillion Pharmaceuticals, Inc., priority 2017, dated 2021)"}
{"target": "Human Factor D (Homo sapiens (Human), UniProt P00746)", "sequence (P00746 26-253)": "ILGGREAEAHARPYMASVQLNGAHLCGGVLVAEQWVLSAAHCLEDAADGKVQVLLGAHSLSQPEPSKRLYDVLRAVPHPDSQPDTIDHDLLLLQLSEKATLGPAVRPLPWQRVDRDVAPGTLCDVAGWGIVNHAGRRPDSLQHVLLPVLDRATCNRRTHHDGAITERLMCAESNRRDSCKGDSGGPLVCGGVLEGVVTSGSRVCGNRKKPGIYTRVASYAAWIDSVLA", "experiment": "Human Factor D Assay", "type": "biochemical", "details": "Table 6; Factor D 80 nM, substrate Z-L-Lys-SBz; read-out: IC50", "in_short": "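Serum-purified Factor D (80 nM final) preincubated 5 min at room temperature with compound in 50 mM Tris, 1 M NaCl, pH 7.5. Z-L-Lys-SBz and DTNB added at 100 μM each; A405 followed every 30 s for 30 min. IC50 from nonlinear regression of rates versus concentration.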", "units": {"IC50": "nM"}}
{"smiles": "CCN(CC)C[C@@]12C[C@@H](C(=O)Nc3nc(Br)ccc3C)N(C(=O)Cn3nc(C(C)=O)c4cc(-c5cnc(C)nc5)cc(C)c43)[C@@H]1C2", "note": "[Compound 118, (1R,3S,5R)-2-(2-(3-Acetyl-7-methyl-5-(2-methylpyrimidin-5-yl)-1H-indazol-1-yl)acetyl)-N-(6-bromo-3-methylpyridin-2-yl)-5-((diethylamino)methyl)-2-azabicyclo[3.1.0]hexane-3-carboxamide]", "IC50": "< 1000"}
{"smiles": "CC(=O)c1nn(CC(=O)N2[C@H](C(=O)Nc3nc(Br)ccc3C)C[C@@]3(CN4C[C@H]5CCC[C@H]5C4)C[C@@H]23)c2ccc(-c3cnc(C)nc3)cc12", "note": "[Compound 119, (1R,3S,5R)-2-(2-(3-Acetyl-5-(2-methylpyrimidin-5-yl)-1H-indazol-1-yl)acetyl)-N-(6-bromo-3-methylpyridin-2-yl)-5-(((3aR,6aS)-hexahydrocyclopenta[c]pyrrol-2(1H)-yl)methyl)-2-azabicyclo[3.1.0]hexane-3-carboxamide]", "IC50": "< 1000"}
{"smiles": "CNc1ncc(-c2ccc3c(c2)c(C(C)=O)nn3CC(=O)N2[C@H](C(=O)Nc3nc(Br)ccc3C)C[C@@]3(C)C[C@@H]23)cn1", "note": "[Compound 120, (1R,3S,5R)-2-(2-(3-Acetyl-5-(2-(methylamino)pyrimidin-5-yl)-1H-indazol-1-yl)acetyl)-N-(6-bromo-3-methylpyridin-2-yl)-5-methyl-2-azabicyclo[3.1.0]hexane-3-carboxamide]", "IC50": "< 1000"}
{"smiles": "C=CCCCCN(C)C[C@@]12C[C@@H](C(=O)Nc3nc(Br)ccc3C=C)N(C(=O)Cn3nc(C(C)=O)c4cc(-c5cnc(C)nc5)ccc43)[C@@H]1C2", "note": "[Compound 123, (1R,3S,5R)-2-(2-(3-Acetyl-5-(2-methylpyrimidin-5-yl)-1H-indazol-1-yl)acetyl)-N-(6-bromo-3-vinylpyridin-2-yl)-5-((hex-5-en-1-yl(methyl)amino)methyl)-2-azabicyclo[3.1.0]hexane-3-carboxamide]", "IC50": "< 1000"}
{"smiles": "CC(=O)c1nn(CC(=O)N2[C@H](C(=O)Nc3nc(Br)ccc3C)C[C@@]3(C)C[C@@H]23)c2c(C#N)cc(-c3cnc(C)nc3)cc12", "note": "[Compound 124, (1R,3S,5R)-2-(2-(3-Acetyl-7-cyano-5-(2-methylpyrimidin-5-yl)-1H-indazol-1-yl)acetyl)-N-(6-bromo-3-methylpyridin-2-yl)-5-methyl-2-azabicyclo[3.1.0]hexane-3-carboxamide]", "IC50": "< 1000"}
{"smiles": "CC(=O)c1nn(CC(=O)N2[C@H](C(=O)Nc3nc(Br)ccc3C)C[C@@]3(C)C[C@@H]23)c2ccc(-c3cnc(N(C)C)nc3)cc12", "note": "[Compound 125, (1R,3S,5R)-2-(2-(3-Acetyl-5-(2-(dimethylamino)pyrimidin-5-yl)-1H-indazol-1-yl)acetyl)-N-(6-bromo-3-methylpyridin-2-yl)-5-methyl-2-azabicyclo[3.1.0]hexane-3-carboxamide]", "IC50": "< 1000"}
{"smiles": "CC(=O)c1nn(CC(=O)N2[C@H](C(=O)O)C[C@@]3(C)C[C@@H]23)c2c(C)cc(-c3cnc(C)nc3)cc12", "note": "[Compound 126, (1R,3S,5R)-2-(2-(3-acetyl-7-methyl-5-(2-methylpyrimidin-5-yl)-1H-indazol-1-yl)acetyl)-5-methyl-2-azabicyclo[3.1.0]hexane-3-carboxylic acid]", "IC50": "> 10000"}
{"smiles": "CC(=O)c1nn(CC(=O)N2[C@H](C(=O)Nc3nc(Br)ccc3C)C[C@@]3(CN4CC5(COC5)C4)C[C@@H]23)c2c(C)cc(-c3cnc(C)nc3)cc12", "note": "[Compound 127, (1R,3S,5R)-5-(2-Oxa-6-azaspiro[3.3]heptan-6-ylmethyl)-2-(2-(3-acetyl-7-methyl-5-(2-methylpyrimidin-5-yl)-1H-indazol-1-yl)acetyl)-N-(6-bromo-3-methylpyridin-2-yl)-2-azabicyclo[3.1.0]hexane-3-carboxamide]", "IC50": "< 1000"}
{"smiles": "CC(=O)c1nn(CC(=O)N2[C@H](C(=O)Nc3nc(Br)ccc3C)C[C@@]3(CN4C[C@H]5CCC[C@H]5C4)C[C@@H]23)c2c(C)cc(-c3cnc(C)nc3)cc12", "note": "[Compound 128, (1R,3S,5R)-2-(2-(3-Acetyl-7-methyl-5-(2-methylpyrimidin-5-yl)-1H-indazol-1-yl)acetyl)-N-(6-bromo-3-methylpyridin-2-yl)-5-(((3aR,6aS)-hexahydrocyclopenta[c]pyrrol-2(1H)-yl)methyl)-2-azabicyclo[3.1.0]hexane-3-carboxamide]", "IC50": "< 1000"}
{"smiles": "CC(=O)c1nn(CC(=O)N2[C@H](C(=O)Nc3nc(Br)ccc3C)C[C@@]3(CN4CC5(CCCC5)C4)C[C@@H]23)c2c(C)cc(-c3cnc(C)nc3)cc12", "note": "[Compound 129, (1R,3S,5R)-5-(2-Azaspiro[3.4]octan-2-ylmethyl)-2-(2-(3-acetyl-7-methyl-5-(2-methylpyrimidin-5-yl)-1H-indazol-1-yl)acetyl)-N-(6-bromo-3-methylpyridin-2-yl)-2-azabicyclo[3.1.0]hexane-3-carboxamide]", "IC50": "< 1000"}
{"smiles": "CC(=O)c1nn(CC(=O)N2[C@H](C(=O)Nc3nc(Br)ccc3C)C[C@@]3(C)C[C@@H]23)c2ccc(-c3cnc(C)nc3)c(F)c12", "note": "[Compound 130, (1R,3S,5R)-2-(2-(3-Acetyl-4-fluoro-5-(2-methylpyrimidin-5-yl)-1H-indazol-1-yl)acetyl)-N-(6-bromo-3-methylpyridin-2-yl)-5-methyl-2-azabicyclo[3.1.0]hexane-3-carboxamide]", "IC50": "< 1000"}
{"smiles": "CC(=O)c1nn(CC(=O)N2[C@H](C(=O)Nc3nc(Br)ccc3C)C[C@@]3(C)C[C@@H]23)c2c(C3CC3)cc(-c3cnc(C)nc3)cc12", "note": "[Compound 131, (1R,3S,5R)-2-(2-(3-Acetyl-7-cyclopropyl-5-(2-methylpyrimidin-5-yl)-1H-indazol-1-yl)acetyl)-N-(6-bromo-3-methylpyridin-2-yl)-5-methyl-2-azabicyclo[3.1.0]hexane-3-carboxamide]", "IC50": "< 1000"}
{"smiles": "CCNC[C@@]12C[C@@H](C(=O)Nc3nc(Br)ccc3C)N(C(=O)Cn3nc(C(C)=O)c4cc(-c5cnc(C)nc5)cc(C)c43)[C@@H]1C2", "note": "[Compound 132, (1R,3S,5R)-2-(2-(3-Acetyl-7-methyl-5-(2-methylpyrimidin-5-yl)-1H-indazol-1-yl)acetyl)-N-(6-bromo-3-methylpyridin-2-yl)-5-((ethylamino)methyl)-2-azabicyclo[3.1.0]hexane-3-carboxamide]", "IC50": "< 1000"}
{"smiles": "CC(=O)c1nn(CC(=O)N2[C@H](C(=O)Nc3nc(Br)ccc3C)C[C@@]3(C)C[C@@H]23)c2c(C(F)(F)F)cc(-c3cnc(C)nc3)cc12", "note": "[Compound 133, (1R,3S,5R)-2-(2-(3-Acetyl-5-(2-methylpyrimidin-5-yl)-7-(trifluoromethyl)-1H-indazol-1-yl)acetyl)-N-(6-bromo-3-methylpyridin-2-yl)-5-methyl-2-azabicyclo[3.1.0]hexane-3-carboxamide]", "IC50": "< 1000"}
{"smiles": "C=CCOCc1ccc(Br)nc1NC(=O)[C@@H]1C[C@@]2(C=C)C[C@H]2N1C(=O)Cn1nc(C(C)=O)c2cc(-c3cnc(C)nc3)ccc21", "note": "[Compound 134, (1R,3S,5R)-2-(2-(3-Acetyl-5-(2-methylpyrimidin-5-yl)-1H-indazol-1-yl)acetyl)-N-(3-((allyloxy)methyl)-6-bromopyridin-2-yl)-5-vinyl-2-azabicyclo[3.1.0]hexane-3-carboxamide]", "IC50": "< 1000"}
